{"source": "patent US20100298758A1", "about": "“METHOD FOR NON-THERAPEUTIC OR THERAPEUTIC PHOTODYNAMIC SKIN TREATMENT” (priority 2007, published 2010)", "tested_on": "cancer cells with high metabolism", "assay": "Fluorescence after administration of 5-ALA in actinic keratosis (FIG. 5)", "assay_type": "in vivo", "details": "other investigations"}
{"compound": "NCC(=O)CCC(=O)O", "note": "[5-ALA, 5-aminolevulinic acid]", "values": [{"measurement": "fluorescence in cancer cells compared to normal cells", "result": "high selective fluorescence in cancer cells"}]}
